A short description of this series: Toxicological evaluation of leachable chemicals of BACTELIDE (margin of safety). The conditions noted are these: worst-case exposure: daily exposure, 100% bioavailability; leachables from BACTELIDE spray. Here is the method: ISO 10993-18:2020 and ISO/TS 21726:2019 leachable studies were performed for BACTELIDE. Solutions of BACTELIDE were collected for analysis via the spraying. The extracts were analyzed by gas chromatography-mass spectrometry (GC-MS) for volatile to semi-volatile compounds, by liquid chromatography-mass spectrometry (LC-MS) for semi-volatile to nonvolatile compounds, and by inductively coupled plasma mass spectrometry (ICP-MS) for elemental (metal and other) components. After analysis, results were reported based on the evaluation criteria listed in the results section below. […] 2-(N,N-Diethylamino)ethyldecyl maleate (CAS #184874-09-7) was the most abundant. Regarding LC-MS results, thirty-nine reportable compounds were identified in the test article extracts in positive ion mode. Glycerol dipentadecanoate (CAS #121957-69-5) was the most abundant. Thirty-six reportable compounds were identified in the test article extracts in negative ion mode. 3-[4-[[4-(2-Oxiranylmethoxy)phenyl]methyl]phenoxy]-1,2-propanediol didodecanoate (CAS #not given) was the most abundant. […]
The MOS values for all chemicals (or groups of similar chemicals) and elements identified across the analytical methods ranged from 3 to 1340000. A few chemicals had calculated “near-1” (i.e. ≥1 but <10) MOS values. […] Their margins of safety were calculated using the ICH M7 less than 1 year TTC of 0.33. […]

The values below come from US20230092872A1, “Method for promoting wound healing” (Phagelux Canada Inc., priority 2021, published 2023).

Turning to `OCC(O)COc1ccc(Cc2ccc(OCC3CO3)cc2)cc1` (stereo not shown) [3-[4-[[4-(2-Oxiranylmethoxy)phenyl]methyl]phenoxy]-1,2-propanediols], the “MOS value (margin of safety)” value came to 3.
